The results in this text go back to patent publication US9084719B2, “Compositions and method for treating infection in cattle and swine” (Intervet Inc., priority 2003, dated 2015).

Like-named read-outs stand apart in the source and are kept apart here.

This data set can be described thus: Plasma levels of florfenicol / pharmacokinetic analysis in cattle after subcutaneous administration. The data set is classed as in vivo. The note with it: bovine, sc, 40 mg/kg, subcutaneous florfenicol solution, 40 mg per kg of body weight. How it is done: Twenty-four head of cattle were used in the study as described below and were administered the formulations of the present invention. Serial blood samples were drawn at time 0 prior to dosing, then at 0.5, 1, 3, 6, 9, 12, 24, 36, 48, 60 and 72 hours post injection. The animals received one of the following treatment regimens.
The study was carried out in bovines of approximately 6 months of age or more that weigh about 125 kg or more. Selection was based on health status appearance, tractability and body weight. […] Animals that had received medication or have participated in another study in the previous 14 days were excluded from this study.
Plasma Levels of florfenicol were taken as follows: Approximately 10 mL of blood was collected from each calf by jugular venipuncture into a Vacutainer® tube containing sodium EDTA and processed for plasma.
Pharmacokinetic Analysis was carried out as follows: Plasma concentrations of florfenicol was reported in the appropriate units (i.e. μg/ml or ng/mL). Plasma florfenicol concentration versus time data was graphically presented for each individual animal, and as mean concentrations for the overall sample population.

On to `CS(=O)(=O)c1ccc([C@@H](O)[C@@H](CF)NC(=O)C(Cl)Cl)cc1` [florfenicol, D-(threo)-1-p-methylsulfonyl phenyl-2-dichloroacetamido-3-fluoro-1-propanol], for which the Cmax is 6370 ng/mL (FIG. 1, six cattle, read-out: Mean peak concentration (Cmax)); 5080 to 7000 ng/mL (FIG. 1, six cattle, read-out: Range of peak concentration (Cmax)); 4250 ng/mL (FIG. 2, six cattle, read-out: Mean peak concentration (Cmax)); 3460 to 5000 ng/mL (FIG. 2, six cattle, read-out: Range of peak concentration (Cmax)). The Tmax reads like this: (FIG. 1, six cattle, read-out: Mean time to peak concentration (Tmax)) 5.5 h; (FIG. 1, six cattle, read-out: Range of time to peak concentration (Tmax)) 3 to 6 h; (FIG. 2, six cattle, read-out: Mean time to peak concentration (Tmax)) 3.67 h; (FIG. 2, six cattle, read-out: Range of time to peak concentration (Tmax)) 1 to 9 h.
